The values below come from patent US8148391B2 (Cephalon, Inc., priority 2006, dated 2012).

For assay [1], the target named is T1, baculovirus-expressed ALK (Homo sapiens, UniProt Q9UM73).
T1 construct: host or cells: baculovirus expression system
As to the kind of experiment: ALK Kinase Assay (ELISA-type, time-resolved fluorescence). The assay is classed as biochemical. The essentials: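 Plates coated with phospholipase C-γ substrate (10 μg/mL in TBS); reaction started with 30 ng/ml ALK and run 15 min at 37° C. Phosphorylated substrate detected with Eu-N1-labeled PT66 antibody. IC50 from sigmoidal variable-slope fit of percent inhibition vs log concentration.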

Assay [2] addresses T2, c-Met (cytoplasmic domain) (Homo sapiens, UniProt P08581).
T2 construct: 10 ng/mL c-Met (cytoplasmic domain, Invitrogen Corporation #PV3143); purchased Invitrogen Corporation PV3143
As to the kind of experiment: c-Met Kinase Assay (same methods as for ALK, with modifications). The assay is classed as biochemical. The essentials: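 Europium-labeled PT66 antibody (Eu-N1) detects substrate phosphorylation on wells coated with phospholipase C-γ at 10 μg/mL. The kinase, the cytoplasmic domain of c-Met at 10 ng/mL, starts the reaction, which proceeds 15 minutes at 37° C.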

Setting [3] is: ALK kinase inhibition, 1 μM ATP (Km level), read-out: ALK Activity.
Where [4] appears, read: c-Met kinase inhibition, 1 μM ATP (Km level), read-out: cMet Activity.
[5] abbreviates: ALK kinase inhibition, 1 μM ATP, read-out: ALK Activity.
Where [6] appears, read: c-Met kinase inhibition, 1 μM ATP, read-out: cMet Activity.
Setting [7] is: 1 μM ATP (Km level), read-out: ALK Activity (ALK Kinase Inhibition, IC50).
[8] abbreviates: 1 μM ATP (Km level), read-out: cMet Activity (c-Met Kinase Inhibition, IC50).
Where [9] appears, read: 1 μM ATP (Km level), 30 ng/ml ALK, 37° C., 15 minutes, read-out: ALK Activity (ALK kinase inhibition, IC50 class).
Setting [10] is: 1 μM ATP (Km level), 10 ng/mL c-Met, read-out: cMet Activity (c-Met kinase inhibition, IC50 class).

Structures are written as SMILES. Like-named read-outs stand apart in the source and are kept apart here.

T2 sequence (P08581 956-1390 limits assumed): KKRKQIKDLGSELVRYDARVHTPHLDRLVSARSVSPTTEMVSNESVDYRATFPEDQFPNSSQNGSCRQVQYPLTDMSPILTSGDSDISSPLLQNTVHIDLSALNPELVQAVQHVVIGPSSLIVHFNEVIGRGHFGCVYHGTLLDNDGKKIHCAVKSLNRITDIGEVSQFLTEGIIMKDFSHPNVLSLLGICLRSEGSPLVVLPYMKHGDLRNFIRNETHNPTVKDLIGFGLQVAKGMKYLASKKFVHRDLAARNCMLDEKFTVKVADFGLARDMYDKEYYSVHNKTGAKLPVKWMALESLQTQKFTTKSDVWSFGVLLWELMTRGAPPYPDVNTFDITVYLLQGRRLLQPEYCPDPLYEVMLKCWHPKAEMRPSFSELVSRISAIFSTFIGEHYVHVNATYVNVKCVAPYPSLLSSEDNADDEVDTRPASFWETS
T1 sequence (Q9UM73 19-1620): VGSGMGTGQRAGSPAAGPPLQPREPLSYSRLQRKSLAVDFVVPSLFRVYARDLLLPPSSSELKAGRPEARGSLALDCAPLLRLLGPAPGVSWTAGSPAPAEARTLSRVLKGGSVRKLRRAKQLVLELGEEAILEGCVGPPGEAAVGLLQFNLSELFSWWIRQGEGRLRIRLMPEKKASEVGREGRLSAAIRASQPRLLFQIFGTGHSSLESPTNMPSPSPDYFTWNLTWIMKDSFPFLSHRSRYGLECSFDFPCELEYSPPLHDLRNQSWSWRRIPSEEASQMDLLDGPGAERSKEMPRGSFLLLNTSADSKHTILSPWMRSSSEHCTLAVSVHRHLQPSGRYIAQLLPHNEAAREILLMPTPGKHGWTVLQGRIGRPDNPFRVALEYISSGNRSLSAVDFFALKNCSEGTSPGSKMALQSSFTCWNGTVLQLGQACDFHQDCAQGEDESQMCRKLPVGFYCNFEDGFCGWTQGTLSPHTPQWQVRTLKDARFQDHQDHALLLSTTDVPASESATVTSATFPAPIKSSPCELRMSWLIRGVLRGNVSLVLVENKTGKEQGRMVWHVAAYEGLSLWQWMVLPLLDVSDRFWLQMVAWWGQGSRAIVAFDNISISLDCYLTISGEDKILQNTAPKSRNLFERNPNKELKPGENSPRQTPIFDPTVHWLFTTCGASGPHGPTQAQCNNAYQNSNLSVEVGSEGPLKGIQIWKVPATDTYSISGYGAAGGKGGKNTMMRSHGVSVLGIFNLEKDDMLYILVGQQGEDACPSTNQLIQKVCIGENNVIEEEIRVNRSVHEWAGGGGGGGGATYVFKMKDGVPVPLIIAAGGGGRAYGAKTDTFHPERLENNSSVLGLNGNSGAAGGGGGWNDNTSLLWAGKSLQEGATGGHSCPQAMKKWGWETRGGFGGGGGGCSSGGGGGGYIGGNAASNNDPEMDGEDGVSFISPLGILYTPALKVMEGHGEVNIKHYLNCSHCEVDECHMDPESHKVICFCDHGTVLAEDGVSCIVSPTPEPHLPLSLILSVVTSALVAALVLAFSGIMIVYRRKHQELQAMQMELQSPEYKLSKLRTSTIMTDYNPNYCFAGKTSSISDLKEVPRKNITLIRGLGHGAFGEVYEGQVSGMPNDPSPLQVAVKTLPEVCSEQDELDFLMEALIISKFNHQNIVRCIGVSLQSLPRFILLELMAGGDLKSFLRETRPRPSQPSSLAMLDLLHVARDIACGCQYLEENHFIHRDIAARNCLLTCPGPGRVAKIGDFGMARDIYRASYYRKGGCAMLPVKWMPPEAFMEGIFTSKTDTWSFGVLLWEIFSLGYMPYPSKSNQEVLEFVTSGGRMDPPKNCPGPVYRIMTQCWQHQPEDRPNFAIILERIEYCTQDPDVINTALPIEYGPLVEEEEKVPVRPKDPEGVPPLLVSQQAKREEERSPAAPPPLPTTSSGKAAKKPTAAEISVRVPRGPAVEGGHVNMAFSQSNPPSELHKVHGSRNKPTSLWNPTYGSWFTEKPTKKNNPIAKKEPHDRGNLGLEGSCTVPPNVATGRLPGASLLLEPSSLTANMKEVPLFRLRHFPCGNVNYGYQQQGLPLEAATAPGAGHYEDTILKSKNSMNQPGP

With `COCCN1CCc2ccc(Nc3ncc(Cl)c(N[C@@H]4CCCC[C@H]4NS(=O)(=O)CC(F)(F)F)n3)cc2CC1` [Example 452, 2,2,2-Trifluoro-ethanesulfonic acid ((1R,2R)-2-{5-chloro-2-[3-(2-methoxy-ethyl)-2,3,4,5-tetrahydro-1H-benzo[d]azepin-7-ylamino]-pyrimidin-4-ylamino}-cyclohexyl)-amide], the IC50 was < 100 nM in assay [1] (setting [3]) and 1000 to 10000 nM in assay [2] (setting [4]).

For the compound `CS(=O)(=O)N1CCc2ccc(Nc3ncc(Cl)c(NC4C5C=CC(C5)C4C(N)=O)n3)cc2CC1` (stereo not drawn) [Example 321, (2-exo, 3-exo)-3-[5-Chloro-2-(3-methanesulfonyl-2,3,4,5-tetrahydro-1H-benzo[d]azepin-7-ylamino)-pyrimidin-4-ylamino]-bicyclo[2.2.1]hept-5-ene-2-carboxylic acid amide], the IC50 is < 100 nM in assay [1] (setting [3]) and 100 to 1000 nM in assay [2] (setting [4]).

On to `CNC(=O)c1cccc(Cl)c1Nc1nc(Nc2ccc3c(c2)CCC(=O)NC3(C)C)ncc1Cl` [Example 1828, 3-Chloro-2-(5-chloro-2-(1,1-dimethyl-3-oxo-2,3,4,5-tetrahydro-1H-benzo[c]azepin-7-ylamino)pyrimidin-4-ylamino)-N-methylbenzamide], for which the IC50 in assay [1] (setting [5]) and in assay [2] (setting [6]) was < 100 nM each time.

Consider `COc1c(Nc2ncc(Cl)c(N[C@H]3[C@@H](C(N)=O)[C@@H]4C=C[C@H]3C4)n2)ccc2c1CCC(NCCO)CC2` (single isomer, unassigned) [Example 697], for which the IC50 is < 100 nM in assay [1] (setting [7]) and 1000 to 10000 nM in assay [2] (setting [8]).

Consider `COCCN1C2CCC1c1cc(Nc3ncc(Cl)c(N[C@@H]4CCCC[C@H]4NS(C)(=O)=O)n3)ccc1C2` (stereo partly drawn) [Example 77, N-((1R,2R)-2-{5-Chloro-2-[12-(2-methoxy-ethyl)-12-aza-tricyclo[7.2.1.0*2,7*]dodeca-2(7),3,5-trien-4-ylamino]-pyrimidin-4-ylamino}-cyclohexyl)-methanesulfonamide], for which the IC50 in assay [1] (setting [3]) was < 100 nM; in assay [2] (setting [4]), 100 to 1000 nM.

As for `CNC(=O)c1sccc1Nc1nc(Nc2ccc3c(c2)N(C(C)=O)CCCO3)ncc1Cl` [Example 1702, 3-[2-(9-Acetyl-6,7,8,9-tetrahydro-5-oxa-9-aza-benzocyclohepten-2-ylamino)-5-chloro-pyrimidin-4-ylamino]-thiophene-2-carboxylic acid methylamide], the IC50 in assay [1] (setting [5]) was 1000 to 10000 nM; in assay [2] (cMet Activity, c-Met kinase inhibition, 1 μM ATP) it was < 100 nM.

`CNC(=O)c1ccccc1Nc1nc(Nc2ccc3c(c2OC)CCCC(=O)N3CCOC)ncc1Cl` [Example 126, 2-{5-Chloro-2-[6-methoxy-1-(2-methoxy-ethyl)-2-oxo-2,3,4,5-tetrahydro-1H-benzo[b]azepin-7-ylamino]-pyrimidin-4-ylamino}-N-methyl-benzamide]: the values for the IC50 in assay [1] (setting [3]) and in assay [2] (setting [4]) were < 100 nM and 1000 to 10000 nM, respectively.

For `COc1cc2c(cc1Nc1ncc(Cl)c(N[C@@H]3CCCC[C@H]3NS(C)(=O)=O)n1)CCC(NCCO)CC2` (single isomer, unassigned) [Example 1095], the IC50 is < 100 nM in assay [1] (setting [9]) and > 10000 nM in assay [2] (setting [10]).

In the case of `COc1c(Nc2ncc(Cl)c(Nc3ccccc3S(=O)(=O)N3CC[C@H](O)C3)n2)ccc2c1CCCC(NCCO)C2` (stereo partly drawn) [Example 963, (S)-1-(2-{5-Chloro-2-[6-(2-hydroxy-ethylamino)-1-methoxy-6,7,8,9-tetrahydro-5H-benzocyclohepten-2-ylamino]-pyrimidin-4-ylamino}-benzenesulfonyl)-pyrrolidin-3-ol], the figures for the IC50 in assay [1] (setting [7]) and in assay [2] (setting [8]) were < 100 nM and 1000 to 10000 nM, respectively.

On to `COc1cc2c(cc1Nc1ncc(Cl)c(Nc3ccccc3S(=O)(=O)C(C)C)n1)CCN(C(CF)CF)CC2` [Example 1394, Chloro-N(2)-[3-(2-fluoro-1-fluoromethyl-ethyl)-8-methoxy-2,3,4,5-tetrahydro-1H-benzo[d]azepin-7-yl]-N(4)-[2-(propane-2-sulfonyl)-phenyl]-pyrimidine-2,4-diamine], for which the IC50 is < 100 nM in assay [1] (setting [9]) and > 10000 nM in assay [2] (setting [10]).

As for `CNC(=O)c1ccccc1Nc1nc(Nc2ccc3c(c2)C2CN(S(C)(=O)=O)CC3O2)ncc1Cl` (single isomer, unassigned) [Example 183, 2-[5-Chloro-2-(10-methanesulfonyl-12-oxa-10-aza-tricyclo[6.3.1.0*2,7*]dodeca-2(7),3,5-trien-4-ylamino)-pyrimidin-4-ylamino]-N-methyl-benzamide], the IC50 in assay [1] (setting [3]) and in assay [2] (setting [4]) was < 100 nM throughout.

As to `COc1cc2c(cc1Nc1ncc(Cl)c(Nc3ccccc3OCC#N)n1)CCN(CC(=O)N(C)C)CC2` [Example 1147, 2-{7-[5-Chloro-4-(2-cyanomethoxy-phenylamino)-pyrimidin-2-ylamino]-8-methoxy-1,2,4,5-tetrahydro-benzo[d]azepin-3-yl}-N,N-dimethyl-acetamide], the IC50 was < 100 nM in assay [1] (setting [9]) and > 10000 nM in assay [2] (setting [10]).

For the compound `CNC(=O)c1cccc(F)c1Nc1nc(Nc2ccc3c(c2)NC(=O)CN(C(C)=O)C3)ncc1Cl` [Example 1848, 2-[2-(4-Acetyl-2-oxo-2,3,4,5-tetrahydro-1H-benzo[e][1,4]diazepin-8-ylamino)-5-chloro-pyrimidin-4-ylamino]-3-fluoro-N-methyl-benzamide], the IC50 in assay [1] (setting [5]) and in assay [2] (setting [6]) was 100 to 1000 nM throughout.

As for `COc1cc2c(cc1Nc1ncc(Cl)c(Nc3cc(C(N)=O)ccc3OC)n1)CCN(CC(=O)N(C)C)CC2` [Example 1136, 3-[5-Chloro-2-(3-dimethylcarbamoylmethyl-8-methoxy-2,3,4,5-tetrahydro-1H-benzo[d]azepin-7-ylamino)-pyrimidin-4-ylamino]-4-methoxy-benzamide], the IC50 in assay [1] (setting [9]) lay in the range of 100 to 1000 nM; in assay [2] (setting [10]) it was 1000 to 10000 nM.

For `COCCN1CCc2ccc(Nc3ncc(Cl)c(N[C@@H]4CCC[C@H](N(CC#N)S(C)(=O)=O)C4)n3)cc2CC1` (relative stereo) [Example 1386, rel-N-((1S,3R)-3-{5-Chloro-2-[3-(2-methoxy-ethyl)-2,3,4,5-tetrahydro-1H-benzo[d]azepin-7-ylamino]-pyrimidin-4-ylamino}-cyclohexyl)-N-cyanomethyl-methanesulfonamide], the IC50 lay in the range of 100 to 1000 nM in assay [1] (setting [9]) and 1000 to 10000 nM in assay [2] (setting [10]).

Consider `COCCN1CCc2ccc(Nc3ncc(Cl)c(Nc4c(F)cccc4OC4CCOC4)n3)cc2CC1` (centres unmarked) [Example 1274, 5-Chloro-N(4)-[2-fluoro-6-(tetrahydro-furan-3-yloxy)-phenyl]-N(2)-[3-(2-methoxy-ethyl)-2,3,4,5-tetrahydro-1H-3-benzazepin-7-yl]-pyrimidine-2,4-diamine], for which the IC50 in assay [1] (setting [9]) and in assay [2] (setting [10]) was 100 to 1000 nM throughout.

In the case of `CN(C)S(=O)(=O)c1ccccc1Nc1nc(Nc2ccc3c(c2)CCN(CC2COCCO2)CC3)ncc1Cl` (centres unmarked) [Example 641, 2-[5-Chloro-2-(3-[1,4]dioxan-2-ylmethyl-2,3,4,5-tetrahydro-1H-benzo[d]azepin-7-ylamino)-pyrimidin-4-ylamino]-N,N-dimethyl-benzenesulfonamide], the IC50 in assay [1] (setting [7]) and in assay [2] (setting [8]) was < 100 nM throughout.

For `CN1C(=O)CCCc2cc(Nc3ncc(Cl)c(Nc4ccccc4-c4nccn4C)n3)ccc21` [Example 995, 7-{5-Chloro-4-[2-(1-methyl-1H-imidazol-2-yl)-phenylamino]-pyrimidin-2-ylamino}-1-methyl-1,3,4,5-tetrahydro-benzo[b]azepin-2-one], the IC50 in assay [1] (setting [7]) is < 100 nM; in assay [2] (setting [8]), 100 to 1000 nM.

Turning to `COc1cc2c(cc1Nc1ncc(Cl)c(N[C@@H]3CCCC[C@H]3NS(C)(=O)=O)n1)CCC(N1CCOCC1)CC2` (stereo partly drawn) [Example 1051, N-{(1R,2R)-2-[5-Chloro-2-(3-methoxy-7-morpholin-4-yl-6,7,8,9-tetrahydro-5H-benzocyclohepten-2-ylamino)-pyrimidin-4-ylamino]-cyclohexyl}-methanesulfonamide], the IC50 was < 100 nM in assay [1] (setting [9]) and > 10000 nM in assay [2] (setting [10]).

Consider `C#CCNC(=O)c1cccc(F)c1Nc1nc(Nc2ccc3c(c2)NC(=O)C(NC(=O)N2CCCC2)CC3(C)C)ncc1Cl` (centres unmarked) [Example 1296, Pyrrolidine-1-carboxylic acid {8-[5-chloro-4-(2-fluoro-6-prop-2-ynylcarbamoyl-phenylamino)-pyrimidin-2-ylamino]-5,5-dimethyl-2-oxo-2,3,4,5-tetrahydro-1H-1-benzazepin-3-yl}-amide], for which the IC50 in assay [1] (setting [9]) was 100 to 1000 nM; in assay [2] (setting [10]), < 100 nM.

`CNC(=O)c1cc(-c2cnn(C)c2)cc(F)c1Nc1nc(Nc2ccc3c(c2)N(C(C)=O)CCCO3)ncc1Cl` [Example 1424, 2-[2-(9-Acetyl-6,7,8,9-tetrahydro-5-oxa-9-aza-benzocyclohepten-2-ylamino)-5-chloro-pyrimidin-4-ylamino]-3-fluoro-N-methyl-5-(1-methyl-1H-pyrazol-4-yl)-benzamide]: the IC50 is 100 to 1000 nM in assay [1] (setting [9]) and < 100 nM in assay [2] (setting [10]).

As to `CNC(=O)c1ccccc1Nc1nc(Nc2cc3c(cc2OC)CCN(CCOC)CC3)ncc1Br` [Example 198, 2-{5-Bromo-2-[8-methoxy-3-(2-methoxy-ethyl)-2,3,4,5-tetrahydro-1H-benzo[d]azepin-7-ylamino]-pyrimidin-4-ylamino}-N-methyl-benzamide], the IC50 is < 100 nM in assay [1] (setting [3]) and 1000 to 10000 nM in assay [2] (setting [4]).
